Reference: PMC10725351, “Niosomal formulation of mefenamic acid for enhanced cancer targeting; preparation, characterization and biodistribution study using radiolabeling technique” (Journal of Cancer Research and Clinical Oncology, 2023)

Assay: In vitro drug release study (dialysis bag, PBS pH 7.4, 37 °C) with kinetic model fitting
Format: physicochemical
Description: In comparison to the release of MEF from suspension, the MEF release from the optimal niosomal formulation was assessed. The dialysis method is the technique of choice for assessing the criteria of drug release from the niosomal formula. MEF release from niosomal formulation and suspension was monitored using a dialysis bag (MWCO12000 Da) at 37 °C for 24 h versus PBS (pH 7.4) to simulate the biological conditions. The optimal niosomes formula and suspension (1 ml of each) were loaded separately inside the dialysis tube, and the released quantity of MEF was evaluated in 100 ml of PBS with continuous stirring. At predefined intervals, (1, 2, 3, 4, 5, 6, 8, and 24 h), 2 ml of freshly formed PBS was added to replace two ml that were withdrawn from the release medium to assess the drug release rate. Lastly, the released concentrations of MEF were determined by examining the samples at 285 nm wavelength using a UV–visible spectrophotometer. This study was performed in triplicate (Targhi et al. [2021]).
The mathematical methodology utilized to determine the kinetics of the total released percentages (cumulative) of MEF from the niosomes formulation was linear regression analysis. These models include Higuchi, Korsmeyer Peppas, First Order, and Zero Order. In the end, the correlation coefficient values were compared to select the model that best fit the data. […]

Cumulative MEF release (after 24 h, PBS pH 7.4, 37 °C, dialysis bag): 55.36%
Order of permeation (best-fit release model): Diffusion
SMILES: Cc1cccc(Nc2ccccc2C(=O)O)c1C [MEF suspension, mefenamic acid]
